Source: the supplement of paper PMC10307832

Key:
Assay in all cases: relative viability (nuclei count vs DMSO), 5 days (fraction); higher = more cells survive
[1] = compound: O=C(C[C@H]1NCCC[C@@H]1O)Cn1cnc2cc(Br)c(Cl)cc2c1=O (racemic) [Halofuginone] + CC(=O)Nc1cccc(-n2c(=O)n(C3CC3)c(=O)c3c(Nc4ccc(I)cc4F)n(C)c(=O)c(C)c32)c1 [Trametinib] (partner 0.02 µM)
Procedure, shortened: (§1)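 A single step with final 0.05% Triton X-100, 1% formaldehyde and 1 ug/ml Hoechst fixed the cells and stained nuclei 5 days after treatment. Lung cancer cell lines in 1536-well plates had been treated by pin tool the day after seeding with one drug alone or a fixed anchor-drug dose plus five library-drug doses (not always all listed) in √10 steps, and nuclei were counted on 4× images. Relative viability is the ratio of nuclei in treated wells to nuclei in vehicle wells, taken as the median of duplicate plates.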

[2] = compound: COc1cc2c(Oc3ccc4[nH]c(C)cc4c3F)ncnc2cc1OCCCN1CCCC1 [Cediranib] + COc1cccc2cc(-c3nc([C@H]4CC[C@H](C(=O)O)CC4)n4ncnc(N)c34)[nH]c12 [OSI-027] (partner 0.5 µM)
Procedure, shortened: as §1

[3] = compound: O=C(C[C@H]1NCCC[C@@H]1O)Cn1cnc2cc(Br)c(Cl)cc2c1=O (racemic) [Halofuginone] + Cc1nc(Nc2ncc(C(=O)Nc3c(C)cccc3Cl)s2)cc(N2CCN(CCO)CC2)n1 [Dasatinib] (partner 0.075 µM)
Procedure, shortened: as §1

[4] = compound: O=C(C[C@H]1NCCC[C@@H]1O)Cn1cnc2cc(Br)c(Cl)cc2c1=O (racemic) [Halofuginone] + NC(=O)Nc1cc(-c2cccc(F)c2)sc1C(=O)N[C@H]1CCCNC1 [AZD7762] (partner 0.2 µM)
Procedure, shortened: as §1

Cell Line	relative viability ([1]; first compound 0.001 µM)	relative viability ([1]; first compound 0.003162 µM)	relative viability ([1]; first compound 0.01 µM)	relative viability ([1]; first compound 0.03162 µM)	relative viability ([1]; first compound 0.1 µM)	relative viability ([2]; first compound 0.04 µM)	relative viability ([2]; first compound 0.1265 µM)	relative viability ([2]; first compound 0.4 µM)	relative viability ([2]; first compound 1.265 µM)	relative viability ([2]; first compound 4 µM)	relative viability ([3]; first compound 0.001 µM)	relative viability ([3]; first compound 0.003162 µM)	relative viability ([3]; first compound 0.01 µM)	relative viability ([3]; first compound 0.03162 µM)	relative viability ([3]; first compound 0.1 µM)	relative viability ([4]; first compound 0.001 µM)	relative viability ([4]; first compound 0.003162 µM)	relative viability ([4]; first compound 0.01 µM)	relative viability ([4]; first compound 0.03162 µM)	relative viability ([4]; first compound 0.1 µM)
EMC-BAC-2	1.02	0.913	0.83	0.85	0.321	0.377	0.503	0.38	0.319	0.367	0.362	0.343	0.301	0.298	0.163	1.17	1.2	1.06	1.12	0.842
EPLC-272H	0.312	0.273	0.285	0.326	0.247	0.288	–	0.287	–	0.232	0.366	0.427	0.43	0.37	0.274	0.208	0.0783	0.216	0.215	0.19
H3255	0.746	0.73	0.543	0.716	0.517	0.658	–	0.638	0.58	0.533	0.429	0.317	0.357	0.328	0.334	1.05	0.777	0.871	0.844	0.876
HARA	0.918	1.27	0.639	0.968	0.221	0.367	–	0.446	0.353	0.657	0.273	0.225	0.304	0.276	0.191	0.279	0.506	0.391	0.305	0.304
HCC-15	0.415	0.412	0.399	0.368	0.31	0.625	–	0.674	0.692	0.717	0.645	0.677	0.572	0.593	0.322	1.19	1.26	1	1.18	1.2
HCC-44	1.04	1.1	1.05	1.13	0.966	–	–	0.447	0.473	0.619	–	–	–	–	–	1.06	1.01	1.02	1.03	1.05
HCC-78	0.775	0.718	0.709	0.766	0.503	0.356	0.448	0.376	0.311	0.356	0.44	0.364	0.357	0.4	0.503	0.657	0.672	0.55	0.652	0.643
HCC-366	0.395	0.404	0.338	0.322	0.166	0.933	0.877	0.841	0.84	1.07	0.709	0.804	0.684	0.66	0.414	0.282	0.321	0.323	0.336	0.317
